Test results reported in ChEMBL document CHEMBL1151317, “A new bromopyrrole alkaloid and the optical resolution of the racemate from the marine sponge homaxinella sp” (1998).
In brackets after ≈: the same amount, converted by molar mass.

System: P388
Experiment: Cytotoxicity against mouse P388 cells
Format: functional
Conditions: read-out: ED50 (the source's name)

SMILES: COCNC(=O)c1cc(Br)c(Br)[nH]1
- EC50: 21.5 µg/mL (≈ 68.9 µM)

SMILES: COC(=O)CC1CNC(=O)c2cc(Br)c(Br)n21 (racemic)
- EC50: 30 µg/mL (≈ 82 µM)

SMILES: O=C1NCC(O)n2c1cc(Br)c2Br (racemic) [LONGAMIDE]
- EC50: > 100 µg/mL
